Results reported in US12453709B2, “Compositions and methods for treating autism” (priority 2013, dated 2025).

How the values were obtained:
Type in all cases: in vivo, human
[1] = tested on: patients qualified under the DSM-5 definition of autism; test: Example 4: DSM-V score; parameters: DSM-V TOTAL / DSM-V social / DSM-V communication / DSM-V relationships / DSM-V behavior: scale not given here; conditions: for DSM V relationships / DSM V communication / DSM V social / DSM V behavior / DSM V TOTAL: PT RS; for DSM V relationships: initial 1; for DSM V communication / DSM V social: initial 5; for DSM V TOTAL: initial 21
Experimental: α-methyl-DL tyrosine (AMPT) was administered to 3 patients. This group of patients was qualified under the DSM-5 definition of autism and treated. The Aberrant Behavior Checklist-Community (ABC-C), Autism Diagnostic Observation Schedule (ADOS), Conners Parent Rating Scale (CPRS), and General Clinical Impressions scale were used to assess the disease. Videos were taken at each visit.

patients with autism = test: Example 5: open-label evaluation of L1-79 (ABC-C, ADOS-2)
Experimental: L1-79 was used anecdotally in two patients followed by a more structured evaluation in 8 additional patients with autism. All patients were administered a starting dose of L1-79 of 90 mg TID for a minimum of 3 months. During the evaluation doses as high as 400 mg TID were used. A summary of data available on these 10 patients was provided in the Summary of Clinical Efficacy, Use of L1-79 to treat autism, submitted to IND 128673, sequence number 0005.

[2] = tested on: male patients diagnosed with autism; test: Study HT 02-121: Aberrant Behavior Checklist-Community (ABC-C); conditions: for ABC-C Hyperactivity and Noncompliance Mean Change from Baseline / ABC-C Hyperactivity and Noncompliance Treatment effect versus placebo / ABC-C Hyperactivity and Noncompliance change, median / ABC-C Inappropriate Speech Mean Change from Baseline / ABC-C Inappropriate Speech Treatment effect versus placebo / ABC-C Inappropriate Speech change, median / ABC-C Irritability and Agitation Mean Change from Baseline / ABC-C Irritability and Agitation Treatment effect versus placebo / ABC-C Irritability and Agitation change, median / ABC-C Lethargy and Social Withdrawal Mean Change from Baseline / ABC-C Lethargy and Social Withdrawal Treatment effect versus placebo / ABC-C Lethargy and Social Withdrawal change, median / ABC-C Stereotypic Behavior Mean Change from Baseline / ABC-C Stereotypic Behavior Treatment effect versus placebo / ABC-C Stereotypic Behavior change, median: Week 4/LOCF
Experimental: This clinical study was a randomized double-blind, placebo-controlled two-cohort, 4-week dose-escalation study that incorporated two open-label treatment groups to assess the safety and efficacy of L1-79 100 mg and 200 mg TID in male patients between the ages of […] years of age diagnosed with autism. The first cohort of 20 patients was comprised of three groups of patients: The first group of five patients received open-label L1-79 100 mg TID and underwent PK and EKG assessments. The remaining two groups in this cohort consisted of 15 patients randomized on a 2:1 basis to receive L1-79 100 mg TID or placebo. The PK and safety data from the open-label L1-79 100 mg TID group was submitted to FDA for review and acceptance before the second cohort was enrolled. The second cohort was procedurally identical to the first. The second cohort of 20 patients was comprised of the same three groups of patients but a dose of 200 mg TID was used instead of 100 mg TID. The key inclusion criteria were as follows: (1) males between 13 and 21 years of age, (2) DSM-5 compliant diagnosis of autism spectrum disorder, confirmed by the Autistic Diagnosis Interview Review (ADIR), and by an ADOS-2 score consistent with a diagnosis of autism, (3) must have been stable on no more than one concomitant medication and no planned changes in psychosocial interventions during the study.
The primary efficacy endpoint was the determination of the clinical improvement by the investigator as documented by the Clinical Global Impression (CGI) rating scales. Additional efficacy endpoints included: (1) changes from baseline in the Socialization and Communication Domains of the Vineland Adaptive Behavior Scales, Second Edition (VABS II) parent/caregiver rating form, (2) changes from baseline in the ADOS-2 Total Score and subscores, (3) changes in the Social Responsiveness Scale, Second Edition (SRS-2) Total Score and subscales, (4) changes in the ABC-C domains, (5) changes in the Repetitive Behavior Scale-Revised (RBS-R) Total Score and subscales. Given the exploratory design of this study only descriptive statistics were planned.
In the preliminary study, all forms were completed at the study site in the presence of the investigator. In Cohort 1 of the present study, the VABS-II, SRS-2, ABC-C and RBS-R were filled out at home by the patient/patient's families prior to treatment visits and returned at treatment visits in order to expedite the execution of the study. […]

Compound `CC(N)(Cc1ccc(O)cc1)C(=O)O` (racemic) [L1-79, α-methyl-DL-tyrosine] has a DSM-V social ([1]; PT LR, Day 7, initial 9) of 5, a DSM-V communication ([1]; PT LR, Day 7, initial 10) of 4 and a DSM-V relationships ([1]; PT LR, Day 7, initial 11) of 4. The DSM-V behavior ([1]; PT LR, Day 7, initial 12) was 12, the “DSM-V TOTAL” value ([1]; PT LR, Day 7, initial 42) was 27 and the DSM-V social ([1]; PT LR, Day 14, initial 9) was 3. It also gave a DSM-V communication ([1]; PT LR, Day 14, initial 10) of 3, a DSM-V relationships ([1]; PT LR, Day 14, initial 11) of 3 and a DSM-V behavior ([1]; PT LR, Day 14, initial 12) of 12. For the same compound, the “DSM-V TOTAL” value ([1]; PT LR, Day 14, initial 42) was 21, the DSM-V social ([1]; PT LR, Day 21, initial 9) was 2 and the DSM-V communication ([1]; PT LR, Day 21, initial 10) was 2. For the same compound, the DSM-V relationships ([1]; PT LR, Day 21, initial 11) was 2, the DSM-V behavior ([1]; PT LR, Day 21, initial 12) was 12 and the “DSM-V TOTAL” value ([1]; PT LR, Day 21, initial 42) was 18. It also gave a DSM-V social ([1]; PT LR, Day 28, initial 9) of 2, a DSM-V communication ([1]; PT LR, Day 28, initial 10) of 2 and a DSM-V relationships ([1]; PT LR, Day 28, initial 11) of 2. For the same compound, the DSM-V behavior ([1]; PT LR, Day 28, initial 12) was 12, the “DSM-V TOTAL” value ([1]; PT LR, Day 28, initial 42) was 18 and the “DSM V relationships” value ([1]; Day 7) was 0. The “DSM V communication” value ([1]; Day 7) was 4, the “DSM V social” value ([1]; Day 7) was 3 and the “DSM V behavior” value ([1]; Day 7, initial 10) was 8. The “DSM V TOTAL” value ([1]; Day 7) was 15, the “DSM V relationships” value ([1]; Day 14) was 0 and the “DSM V communication” value ([1]; Day 14) was 1.5. For the same compound, the “DSM V social” value ([1]; Day 14) was 1.5, the “DSM V behavior” value ([1]; Day 14, initial 10) was 5 and the “DSM V TOTAL” value ([1]; Day 14) was 8. For the same compound, the “DSM V relationships” value ([1]; Day 21) was 0, the “DSM V communication” value ([1]; Day 21) was 1.5 and the “DSM V social” value ([1]; Day 21) was 1. The “DSM V behavior” value ([1]; Day 21, initial 10) was 4, the “DSM V TOTAL” value ([1]; Day 21) was 6.5 and the “DSM V relationships” value ([1]; Day 28) was 0. For the same compound, the “DSM V communication” value ([1]; Day 28) was 1.5, the “DSM V social” value ([1]; Day 28) was 1 and the “DSM V behavior” value ([1]; Day 28, initial 10) was 3. The “DSM V TOTAL” value ([1]; Day 28) was 5.5, the DSM-V communication ([1]; PT WC, Day 7, initial 3) was 0 and the DSM-V relationships ([1]; PT WC, Day 7, initial 6) was 2. The DSM-V social ([1]; PT WC, Day 7, initial 6) was 6, the DSM-V behavior ([1]; PT WC, Day 7, initial 11) was 9 and the “DSM-V TOTAL” value ([1]; PT WC, Day 7, initial 26) was 17. For the same compound, the DSM-V communication ([1]; PT WC, Day 14, initial 3) was 0, the DSM-V relationships ([1]; PT WC, Day 14, initial 6) was 2 and the DSM-V social ([1]; PT WC, Day 14, initial 6) was 4. For the same compound, the DSM-V behavior ([1]; PT WC, Day 14, initial 11) was 8, the “DSM-V TOTAL” value ([1]; PT WC, Day 14, initial 26) was 14 and the DSM-V communication ([1]; PT WC, Day 21, initial 3) was 0. For the same compound, the DSM-V relationships ([1]; PT WC, Day 21, initial 6) was 2, the DSM-V social ([1]; PT WC, Day 21, initial 6) was 2 and the DSM-V behavior ([1]; PT WC, Day 21, initial 11) was 8. For the same compound, the “DSM-V TOTAL” value ([1]; PT WC, Day 21, initial 26) was 12, the DSM-V communication ([1]; PT WC, Day 28, initial 3) was 0 and the DSM-V relationships ([1]; PT WC, Day 28, initial 6) was 2. For the same compound, the DSM-V social ([1]; PT WC, Day 28, initial 6) was 2, the DSM-V behavior ([1]; PT WC, Day 28, initial 11) was 7 and the “DSM-V TOTAL” value ([1]; PT WC, Day 28, initial 26) was 11. For the same compound, the “effect of longer treatment on core symptoms” value (patients with autism; open-label) was “greater magnitude of therapeutic benefits”, the ABC-C domains (patients with autism; open-label, 10 patients) was “consistent improvements” and the “average reduction in the ADOS-2” value (patients with autism; open-label, 10 patients, from 90 mg TID, minimum 3 months) was 30%. For the same compound, the “ADOS-2 decrease in one child (loss of autism diagnosis)” value (patients with autism; open-label, one child) was 60%, the benefits after discontinuation (patients with autism; study drug discontinued) was “not all of the benefits regressed” and the “ABC-C Lethargy and Social Withdrawal / Inappropriate Speech: responder analyses vs placebo” value ([2]; 200 mg group) was “greater tendency for patients to respond with improvement or no worsening”. The “ABC-C Hyperactivity and Noncompliance Mean Change from Baseline” value ([2]; DB 100 mg TID) was 0.4, the “ABC-C Hyperactivity and Noncompliance Treatment effect versus placebo” value ([2]; DB 100 mg TID) was 4.9 and the “ABC-C Hyperactivity and Noncompliance change, median” value ([2]; DB 100 mg TID) was 0, 0, 3. The “ABC-C Inappropriate Speech Mean Change from Baseline” value ([2]; DB 100 mg TID) was 0.0, the “ABC-C Inappropriate Speech Treatment effect versus placebo” value ([2]; DB 100 mg TID) was 1.6 and the “ABC-C Inappropriate Speech change, median” value ([2]; DB 100 mg TID) was −2, 0, 1. The “ABC-C Irritability and Agitation Mean Change from Baseline” value ([2]; DB 100 mg TID) was −0.9, the “ABC-C Irritability and Agitation Treatment effect versus placebo” value ([2]; DB 100 mg TID) was 2.5 and the “ABC-C Irritability and Agitation change, median” value ([2]; DB 100 mg TID) was −2, −1, 0. For the same compound, the “ABC-C Lethargy and Social Withdrawal Mean Change from Baseline” value ([2]; DB 100 mg TID) was −1.6, the “ABC-C Lethargy and Social Withdrawal Treatment effect versus placebo” value ([2]; DB 100 mg TID) was 3.9 and the “ABC-C Lethargy and Social Withdrawal change, median” value ([2]; DB 100 mg TID) was −2, −1, 1. The “ABC-C Stereotypic Behavior Mean Change from Baseline” value ([2]; DB 100 mg TID) was 1.9, the “ABC-C Stereotypic Behavior Treatment effect versus placebo” value ([2]; DB 100 mg TID) was 2.5 and the “ABC-C Stereotypic Behavior change, median” value ([2]; DB 100 mg TID) was 0, 0, 4. For the same compound, the “ABC-C Hyperactivity and Noncompliance Mean Change from Baseline” value ([2]; DB 200 mg TID) was −4.0, the “ABC-C Hyperactivity and Noncompliance Treatment effect versus placebo” value ([2]; DB 200 mg TID) was 0.5 and the “ABC-C Hyperactivity and Noncompliance change, median” value ([2]; DB 200 mg TID) was −7, −1, 0. The “ABC-C Inappropriate Speech Mean Change from Baseline” value ([2]; DB 200 mg TID) was −2.0, the “ABC-C Inappropriate Speech Treatment effect versus placebo” value ([2]; DB 200 mg TID) was −0.4 and the “ABC-C Inappropriate Speech change, median” value ([2]; DB 200 mg TID) was −4, −1, 0. The “ABC-C Irritability and Agitation Mean Change from Baseline” value ([2]; DB 200 mg TID) was −2.2, the “ABC-C Irritability and Agitation Treatment effect versus placebo” value ([2]; DB 200 mg TID) was 1.2 and the “ABC-C Irritability and Agitation change, median” value ([2]; DB 200 mg TID) was −7, −2, 0. The “ABC-C Lethargy and Social Withdrawal Mean Change from Baseline” value ([2]; DB 200 mg TID) was −4.5, the “ABC-C Lethargy and Social Withdrawal Treatment effect versus placebo” value ([2]; DB 200 mg TID) was 1.0 and the “ABC-C Lethargy and Social Withdrawal change, median” value ([2]; DB 200 mg TID) was −9, −2, 0. The “ABC-C Stereotypic Behavior Mean Change from Baseline” value ([2]; DB 200 mg TID) was −1.7, the “ABC-C Stereotypic Behavior Treatment effect versus placebo” value ([2]; DB 200 mg TID) was −1.1 and the “ABC-C Stereotypic Behavior change, median” value ([2]; DB 200 mg TID) was −3, −1, 0. The “patients with stability or improvement of ABC-C social and speech domains” value ([2]; L1-79 200 mg) was 90 to 100%.
